According to ChEMBL document CHEMBL1127247, “Isoarecolones and arecolones: selective central nicotinic agonists that cross the blood-brain barrier” (Bioorg Med Chem Lett, 1994):

Tests used:
[1] = biological target: Neuronal acetylcholine receptor; assay: Binding affinity for Nicotinic acetylcholine receptor site in rat cortex was determined using [3H]MCC as radioligand
[2] = biological target: Muscarinic acetylcholine receptor; assay: Binding affinity for muscarinic receptor site in rat hippocampus was determined using competitive radioligand binding assays employing [3H]OXO-M; format: tissue-based
[3] = Selectivity for nicotinic agonist activity was determined between Ki for [3H]-OXO-M and to that for [3H]MCC; format: functional
[4] = species: Rattus norvegicus; assay: (§1) Effect of compound on accumulation of dopamine metabolite dihydroxyphenyl acetic acid (DOPAC) in nucleus accumbens; format: functional, organism-based
[5] = species: Rattus norvegicus; assay: (§2) Effect of compound on accumulation of dopamine metabolite dihydroxyphenyl acetic acid (DOPAC) in rat striatum; format: functional, organism-based
[6] = species: Rattus norvegicus; assay: (§3) Effect of compound on accumulation of homovanillic acid (HVA) in nucleus accumbens; format: functional, organism-based
[7] = species: Rattus norvegicus; assay: (§4) Effect of compound on accumulation of homovanillic acid (HVA) in rat striatum; format: functional, organism-based
[8] = species: Rattus norvegicus; assay: as §1; format: functional
[9] = species: Rattus norvegicus; assay: as §2; format: functional
[10] = species: Rattus norvegicus; assay: as §3; format: functional
[11] = species: Rattus norvegicus; assay: as §4; format: functional

SMILES | Ki [1] [µM] | Ki [2] [µM] | Selectivity [3] | Concentration [4] [nM/g] | Concentration [5] [nM/g] | Concentration [6] [nM/g] | Concentration [7] [nM/g] | Control [8] [%] | Control [9] [%] | Control [10] [%] | Control [11] [%]
CCCCC(=O)C1=CCCN(C)C1 | 0.0613 | 1.385 | 23 |  |  |  |  |  |  |  | 
CN1CC=C(C(=O)Cc2ccccc2)CC1 | 0.946 | 3.5 | 4 |  |  |  |  |  |  |  | 
CC#CC(=O)C1=CCN(C)CC1 | 0.022 | 2.69 | 122 | 1.66 | 1.91 | 0.73 | 1.25 | 120 | 123 | 132 | 140
CC(=O)C1=CCCN(C)C1 | 0.0327 | 4.38 | 134 |  |  |  |  |  |  |  | 
CN1CCC=C(C(=O)c2ccccc2)C1 | 0.178 | 2.45 | 14 |  |  |  |  |  |  |  | 
CCC(=O)C1=CCN(C)CC1 | 0.0257 | > 5 | > 195 |  |  |  |  |  |  |  | 
CN1CC=C(C(=O)C(C)(C)C)CC1 | 0.0567 | 6.25 | 110 |  |  |  |  |  |  |  | 
CCCCC(=O)C1=CCN(C)CC1 | 0.149 | 4.345 | 29 |  |  |  |  |  |  |  | 
CCCC(=O)C1=CCCN(C)C1 | 0.0131 | 2.73 | 208 |  |  |  |  |  |  |  | 
CCCC(=O)C1=CCN(C)CC1 | 0.0673 | > 5 | > 74 |  |  |  |  |  |  |  | 
CC(=O)C1=CCN(C)CC1 | 0.0484 | 5.425 | 112 |  |  |  |  |  |  |  | 
CN1CCC=C(C(=O)Cc2ccccc2)C1 | 0.123 | 1.885 | 15 |  |  |  |  |  |  |  | 
CN1CCC[C@H]1c1cccnc1 [NICOTINE] |  |  |  | 2 | 2.18 | 0.86 | 134 | 144 | 140 | 157 | 151
CCC(=O)C1=CCCN(C)C1 [ARECOLON] | 0.0058 | 1.95 | 336 |  |  |  |  |  |  |  | 
CN1CC=C(C(=O)c2ccccc2)CC1 | 0.766 | 3.75 | 5 |  |  |  |  |  |  |  | 
COC(=O)C1=CCCN(C)C1 [ARECOLINE] | 0.224 |  |  |  |  |  |  |  |  |  | 
CC#CC(=O)C1=CCCN(C)C1 | 0.0058 | 1.65 | 284 | 1.79 | 1.8 | 0.88 | 1.21 | 129 | 115 | 159 | 135
